Measurements as given in US20240018108A1, “METHODS AND COMPOSITIONS FOR INHIBITION OF DIHYDROOROTATE DEHYDROGENASE” (OHIO STATE INNOVATION FOUNDATION, priority 2019, published 2024).

Experiments:
h-DHODH = target: T1, h-DHODH (Homo sapiens, UniProt Q02127); test: DHODH enzymatic assay (DCIP reduction); format: biochemical; conditions: recombinant human enzyme, 25° C., pH 8.0
T1 construct: made in house
Description: DHODH Enzymatic Assay: DHODH activity was determined at 25° C. following the reduction of 2,6-dichloroindophenol sodium salt (DCIP) at 600 nm (ε=18 800 M^−1 cm^−1) on a spectrophotometer. The reaction medium used contained 50 mM Tris-HCl, pH 8.0, 0.1% Triton X-100, 0.1 mM LDHO, 0.025 mM CoQ1, and 0.06 mM DCIP. The reaction was started by addition of the enzyme. The inhibitory potency of the compounds was evaluated by measuring the initial velocity of the reaction either in the absence or in the presence of the compounds at the indicated concentrations. The DHODH enzyme used was the recombinant human enzyme prepared as previously described (Helene Munier-Lehmann, et al., J. Med. Chem. 2015, 58:860-877).

MOLM13 cell line = test: MTS assay for cell growth/viability, MOLM13; format: cell-based; conditions: Homo sapiens
Description: MTS assay for cell growth/viability: Mitochondrial activity was measured to determine cell proliferation using an MTS assay ([…]). Metabolically active cells convert MTS tetrazolium salt into a purple formazan product that is soluble in tissue culture medium. The amount of formazan measured at 490 nm absorbance is proportional to the number of proliferating cells. […] Triplicate wells were set up for each condition. At 96 hours, the MTS reagent was added and after approximately 4 hours the plates were read in a spectrophotometer.
(§1) Biological Activity: Cell proliferation assays were carried out using the MTS assay described herein using two AML cell lines (i.e., MOLM13 and OCI-AML3) with varied genetic backgrounds. The assays were carried out in a blinded fashion.

OCI-AML3 cell line = test: MTS assay for cell growth/viability, OCI-AML3; format: cell-based; conditions: Homo sapiens, OCI-AML-3, 96 hours, Table 2 (one study)
Description: (§2) MTS assay for cell growth/viability: Mitochondrial activity was measured to determine cell proliferation using an MTS assay ([…]). Metabolically active cells convert MTS tetrazolium salt into a purple formazan product that is soluble in tissue culture medium. The amount of formazan measured at 490 nm absorbance is proportional to the number of proliferating cells. MTS assays in AML cell lines were carried out with 20K cells plated per well in 96-well plates with Cpd3 or brequinar in a dose series ranging from 0.0001 to 10 μM. Triplicate wells were set up for each condition. At 96 hours, the MTS reagent was added and after approximately 4 hours the plates were read in a spectrophotometer.
as §1

[1] = system: AML cell lines (MOLM13 and OCI-AML3); test: MTS cell proliferation assay, AML cell lines; format: cell-based; conditions: range over the two AML cell lines, one study; read-out: growth arrest in AML cell lines, IC50 range
Description: as §2, §1

[2] = MOLM-13, Table 3 (second study), dose range of 2 nM to 10000 nM

T1 sequence (Q02127 whole entry): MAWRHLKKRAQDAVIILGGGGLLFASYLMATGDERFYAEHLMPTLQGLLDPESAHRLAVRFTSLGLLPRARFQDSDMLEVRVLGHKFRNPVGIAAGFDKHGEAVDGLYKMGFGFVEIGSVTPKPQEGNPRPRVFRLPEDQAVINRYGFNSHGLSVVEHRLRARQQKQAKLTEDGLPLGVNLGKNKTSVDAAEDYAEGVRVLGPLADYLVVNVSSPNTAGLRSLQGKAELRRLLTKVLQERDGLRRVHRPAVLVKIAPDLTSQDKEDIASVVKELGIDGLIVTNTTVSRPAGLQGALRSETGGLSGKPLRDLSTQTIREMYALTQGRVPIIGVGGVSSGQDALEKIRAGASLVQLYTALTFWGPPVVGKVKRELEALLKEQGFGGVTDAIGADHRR

IC50 (h-DHODH)	IC50 (MOLM13 cell line; [2])	IC50 (OCI-AML3 cell line)	IC50 (MOLM13 cell line; MOLM-13, 96 hours, Table 2 (one study))	IC50 [1]	SMILES
11.6 nM	538 nM	–	–	–	CCOc1ccc(-c2ccc(-c3cc(C(=O)O)c4cc(F)ccc4n3)c(C)c2)cc1 [Cpd21, 2-(4′-ethoxy-3-methyl-[1,1′-biphenyl]-4-yl)-6-fluoroquinoline-4-carboxylic acid]
1.4 nM	< 2 nM	–	–	–	CCOc1ccc(-c2cc(F)c(-c3cc(C(=O)O)c4cc(F)ccc4n3)cc2F)cc1 [Cpd7, 2-(4′-ethoxy-2,5-difluoro-[1,1′-biphenyl]-4-yl)-6-fluoroquinoline-4-carboxylic acid]
0.6 nM	< 2 nM	–	–	–	CCOc1cccc(-c2ccc(-c3cc(C(=O)O)c4cc(F)ccc4n3)cc2Cl)c1 [Cpd20, 2-(2-chloro-3′-ethoxy-[1,1′-biphenyl]-4-yl)-6-fluoroquinoline-4-carboxylic acid]
< 0.51 nM	< 2 nM	–	–	–	CCOc1cccc(-c2cc(F)c(-c3cc(C(=O)O)c4cc(F)ccc4n3)cc2F)c1 [Cpd8, 2-(3′-ethoxy-2,5-difluoro-[1,1′-biphenyl]-4-yl)-6-fluoroquinoline-4-carboxylic acid]
1.5 nM	< 2 nM	–	–	–	CCOc1ccc(-c2ccc(-c3cc(C(=O)O)c4cc(F)ccc4n3)cc2C)cc1 [Cpd13, 2-(4′-ethoxy-2-methyl-[1,1′-biphenyl]-4-yl)-6-fluoroquinoline-4-carboxylic acid]
4.2 nM	< 2 nM	–	–	–	CCOc1ccc(-c2ccc(-c3cc(C(=O)O)c4cc(F)ccc4n3)cc2OC)cc1 [Cpd15, 2-(4′-ethoxy-2-methoxy-[1,1′-biphenyl]-4-yl)-6-fluoroquinoline-4-carboxylic acid]
6.2 nM	43 nM	–	–	–	CCOc1ccc(-c2cc(F)c(-c3cc(C(=O)O)c4cc(F)ccc4n3)c(F)c2)cc1 [Cpd17, 2-(4′-ethoxy-3,5-difluoro-[1,1′-biphenyl]-4-yl)-6-fluoroquinoline-4-carboxylic acid]
1.66 nM	14 nM	–	–	–	O=C(O)c1cc(-c2ccc(-c3ccccc3F)c(F)c2)nc2ccc(F)cc12 [Cpd5, 2-(2,2′-difluoro-[1,1′-biphenyl]-4-yl)-6-fluoroquinoline-4-carboxylic acid]
16 nM	532 nM	–	–	–	CCOc1ccc(-c2ccc(-c3cc(C(=O)O)c4cc(F)ccc4n3)c(OC)c2)cc1 [Cpd23, 2-(4′-ethoxy-3-methoxy-[1,1′-biphenyl]-4-yl)-6-fluoroquinoline-4-carboxylic acid]
1.1 nM	< 2 nM	–	–	–	CCOc1ccc(-c2ccc(-c3cc(C(=O)O)c4cc(F)ccc4n3)cc2Cl)cc1 [Cpd19, 2-(2-chloro-4′-ethoxy-[1,1′-biphenyl]-4-yl)-6-fluoroquinoline-4-carboxylic acid]
1.34 nM	< 2 nM	–	–	–	CCNc1ccc(-c2ccc(-c3cc(C(=O)O)c4cc(F)ccc4n3)cc2F)cc1 [Cpd6, 2-(4′-(ethylamino)-2-fluoro-[1,1′-biphenyl]-4-yl)-6-fluoroquinoline-4-carboxylic acid]
5.5 nM	–	–	–	–	CCOc1ccc(-c2ccc(-c3cc(C(=O)O)c4cc(F)ccc4n3)c(F)c2)cc1 [Cpd9, 2-(4′-ethoxy-3-fluoro-[1,1′-biphenyl]-4-yl)-6-fluoroquinoline-4-carboxylic acid]
1.2 nM	< 2 nM	–	–	–	CCOc1cccc(-c2cc(F)c(-c3cc(C(=O)O)c4cc(F)ccc4n3)c(F)c2)c1 [Cpd18]
22.2 nM	464 nM	–	–	–	CCOc1ccc(-c2ccc(-c3cc(C(=O)O)c4cc(F)ccc4n3)c(Cl)c2)cc1 [Cpd24, 2-(3-chloro-4′-ethoxy-[1,1′-biphenyl]-4-yl)-6-fluoroquinoline-4-carboxylic acid]
0.7 nM	< 2 nM	–	–	–	CCOc1cccc(-c2ccc(-c3cc(C(=O)O)c4cc(F)ccc4n3)c(F)c2)c1 [Cpd10, 2-(3′-ethoxy-3-fluoro-[1,1′-biphenyl]-4-yl)-6-fluoroquinoline-4-carboxylic acid]
1.4 nM	< 2 nM	–	–	–	CCOc1cccc(-c2ccc(-c3cc(C(=O)O)c4cc(F)ccc4n3)cc2C)c1 [Cpd14]
< 0.5 nM	16 nM	–	–	–	CCOc1cccc(-c2ccc(-c3cc(C(=O)O)c4cc(F)ccc4n3)cc2F)c1 [Cpd2, 2-(3′-ethoxy-2-fluoro-[1,1′-biphenyl]-4-yl)-6-fluoroquinoline-4-carboxylic acid]
2.43 nM	13 nM	19.5 nM	14.5 nM	14.5 to 19.5 nM	CCOc1ccc(-c2ccc(-c3cc(C(=O)O)c4cc(F)ccc4n3)cc2F)cc1 [Cpd1, 2-(4′-ethoxy-2-fluoro-[1,1′-biphenyl]-4-yl)-6-fluoroquinoline-4-carboxylic acid]
1.3 nM	< 2 nM	–	–	–	CCOc1cccc(-c2ccc(-c3cc(C(=O)O)c4cc(F)ccc4n3)cc2OC)c1 [Cpd16, 2-(3′-ethoxy-2-methoxy-[1,1′-biphenyl]-4-yl)-6-fluoroquinoline-4-carboxylic acid]

SMILES	IC50 (h-DHODH)	IC50 (MOLM13 cell line; [2])	IC50 (OCI-AML3 cell line)	IC50 (MOLM13 cell line; MOLM-13, 96 hours, Table 2 (one study))	IC50 [1]
CCCCOc1cccc(-c2ccc(-c3cc(C(=O)O)c4cc(F)ccc4n3)cc2F)c1 [Cpd3, 2-(3′-butoxy-2-fluoro-[1,1′-biphenyl]-4-yl)-6-fluoroquinoline-4-carboxylic acid]	< 0.5 nM	16 nM	–	–	–
CCCCOc1cccc(-c2ccc(-c3cc(C(=O)O)c4cc(F)ccc4n3)c(Cl)c2)c1 [Cpd27]	< 0.51 nM	16 nM	–	–	–
CCCCOc1cccc(-c2ccc(-c3cc(C(=O)O)c4cc(F)ccc4n3)c(F)c2)c1 [Cpd12, 2-(3′-butoxy-3-fluoro-[1,1′-biphenyl]-4-yl)-6-fluoroquinoline-4-carboxylic acid]	0.7 nM	< 2 nM	–	–	–
CCCCOc1cccc(-c2ccc(-c3cc(C(=O)O)c4cc(F)ccc4n3)c(OC)c2)c1 [Cpd26, 2-(3′-butoxy-3-methoxy-[1,1′-biphenyl]-4-yl)-6-fluoroquinoline-4-carboxylic acid]	0.7 nM	11 nM	–	–	–
CCCCOc1cccc(-c2cc(F)c(-c3cc(C(=O)O)c4cc(F)ccc4n3)cc2F)c1 [Cpd11, 2-(3′-butoxy-2,5-difluoro-[1,1′-biphenyl]-4-yl)-6-fluoroquinoline-4-carboxylic acid]	< 0.51 nM	–	–	–	–
CCCCOc1cccc(-c2ccc(-c3cc(C(=O)O)c4cc(F)ccc4n3)cc2C)c1 [Cpd25, 2-(3′-butoxy-2-methyl-[1,1′-biphenyl]-4-yl)-6-fluoroquinoline-4-carboxylic acid]	< 0.51 nM	< 2 nM	–	–	–
O=C(O)c1cc(-c2ccc(-c3ccccc3)c(F)c2)nc2ccc(F)cc12 [Cpd4]	0.72 nM	41 nM	–	–	–
CCCCOc1cccc(-c2ccc(-c3cc(C(=O)O)c4cc(F)ccc4n3)c(C)c2)c1 [Cpd22, 2-(3′-butoxy-3-methyl-[1,1′-biphenyl]-4-yl)-6-fluoroquinoline-4-carboxylic acid]	< 0.51 nM	34 nM	–	–	–
